Values joined by “and” are separate entries in the source; they are usually repeats but may differ in a detail not shown here. Equal values may be shown once.
Assays:
cotton pellet granulomas = test: inhibition of cotton pellet granulomas; format: in vivo, male Sprague-Dawley rats; settings: oral, daily for 10 days
Protocol: Two cotton pellets weighing 70 mg were implanted under the back skin of male Sprague-Dawley rats anesthetized with ether. Starting the next day, the compound was administered orally daily for 10 days. The rats were sacrificed and the pellets were removed and weighed before and after drying at 50° C. for 24 hours. The weights used were those obtained after deduction of the weight of the implants. The average of the quantities so calculated was determined for each group and compared to the averages of the control group.

[1] = tested on: edema produced by serotonin; test: inhibition of serotonin-induced edema; format: in vivo, Wistar rat; settings: oral, 30 minutes before serotonin
Protocol: In the Wistar rat inflammation is induced by intrapedal injection of 0.1 ml of a 0.02% solution of serotonin in physiological serum. The test substance is administered orally 30 minutes before the serotonin and the edema is measured by plethysmometry one hour after its release.

blood sugar level = test: antidiabetic activity, blood sugar level in streptozotocin hyperglycemic rats; format: in vivo, Female rats; design: key: NS: the difference between the blood sugar level in the treated animals and the control animals is not significant; the difference is significant by Student's test at p≤0.05; settings: oral
Protocol: Female rats weighing 180-200 grams were given an intraperitoneal dose on day J0 of 100 mg/kg of streptozotocin in a 0.05 M citrate buffer at a pH of 4.5 calculated as 0.5 ml per 100 g of body weight. On day J2 hyperglycemic animals were selected by determining the blood sugar level by the orthotoludine method in a stream continuously removed from the retroorbital sinus. […] On day J3, without previous fasting, the selected animals received the treatment. This consisted of oral administration of the test compound in a 6% aqueous suspension of gum arabic at a volume of 0.5 ml per 100 g of body weight.
The animals were sacrificed one, two, or four hours after the treatment and their blood sugar levels were determined. Each group of animals was compared to a control group of animals which received only the suspension of gum arabic. Metformin was the substance chosen as the control.
The results are given in Table 8 which indicates the percentage of decrease in the blood sugar level produced by the treatment.

phenylbenzoquinone (PBQ) = test: analgesic activity, phenylbenzoquinone (PBQ) challenge; format: in vivo; settings: male Swiss mouse, oral
Protocol: The analgesic activity was determined in the male Swiss mouse using phenylbenzoquinone (PBQ) as the challenging agent (variation of the method of Siegmund et al, Proc. Soc. Exp. Biol. Med. […], 95, 729-31). […] The ED50 was determined by the method of Lichfield and Wilcoxon.

Wistar rat = test: oral toxicity (mortality) in the Wistar rat; format: in vivo
Protocol: The percentages of mortality produced by the compounds of this invention when administered orally to Swiss mice are shown in Table 1. The animals, free from specific pathogenic organisms were housed in an air conditioned room for 24 to 48 hours before the start of the experiment. They were separated into groups of 5 males and 5 females. The materials were administered to animals which had been fasted for 24 hours by means of a gastric tube in suspension in a 6% thickened julep using a volume equivalent to 0.1 ml per 10 g of body weight. […] They remained under observation for two weeks before being sacrificed and autopsied.
The toxicities of the compounds of Examples 2 and 3 were determined in the Wistar rat. The protocol which was followed was the same as that described for the mice, except that the compounds were administered in a volume equivalent to 0.5 ml per 100 g of body weight of rat. […] The product of Example 3 produced no mortality at 2000 mg/kg and 20% mortality at 3000 mg/kg.

[2] = tested on: carrageenan-induced granulomas; test: activity on carrageenan-induced granulomas; format: in vivo, Male Wistar rats; settings: for ED50: Rattus norvegicus, 24 h, dose which protects 50% of the animals to the extent of 30% with respect to wet weight of the granuloma, read-out: AD50 (the source's name)
Protocol: Male Wistar rats weighing 130 to 150 grams were given a subcutaneous injection in the central part of the skin of the back of 0.5 ml of an aqueous suspension of carrageenan. Two doses of the test substance are administered, one 30 minutes before and the other 6 hours after carrageenan. At the end of 24 hours the rats were sacrificed and the granulomas were removed and weighed before and after drying for 24 hours at 50° C. The difference in weight of the granulomas wet and dry represents the exudate
These AD50 are respectively 175(142-215) and 175(150-205) mg/kg.

stomachs = test: ulcerogenic activity; format: in vivo, female Wistar rat; settings: 150 mg/kg daily
Protocol: The ulcerogenic activity was determined in the female Wistar rat using a variation of the procedure described by J. M. Lwoff, J. Pharmacol. 1971, 3, 1, 81-3. The test substance was administered daily for 3 days to the animals maintained on a aqueous diet. The stomachs were removed after 1, 2, and 3 days of treatment and the ulcerations were classified from 0 to 4. The ulceration index is calculated for each group of animals as the product (average of the classes x the percentage of animals afflicted), while distinguishing acute ulcerations from ulcers which were in the process of healing.

[3] = 50 mg/kg, treatment 1 h before sacrificing
[4] = 50 mg/kg, treatment 2 h before sacrificing
[5] = 50 mg/kg, treatment 4 h before sacrificing
[6] = 100 mg/kg, treatment 1 h before sacrificing
[7] = 100 mg/kg, treatment 2 h before sacrificing
[8] = 100 mg/kg, treatment 4 h before sacrificing
[9] = 200 mg/kg, treatment 1 h before sacrificing
[10] = 200 mg/kg, treatment 2 h before sacrificing
[11] = 200 mg/kg, treatment 4 h before sacrificing

## Cc1ccc(C=Nc2ccc3c(c2)OCO3)s1 [Example 2, N-(5-methyl-2-thienylidene)-5-aminobenzodioxole-1,3]
Cotton pellet granulomas; dose 150
  % inhibition with respect to dry pellets: 5%
  % inhibition with respect to wet pellets: 12%
Cotton pellet granulomas; dose 300
  % inhibition with respect to dry pellets: 23%
  % inhibition with respect to wet pellets: 17%
[1]; 100 mg/kg
  % inhibitory activity on serotonin edema: 39%
[1]; 200 mg/kg
  % inhibitory activity on serotonin edema: 29%
[1]; 400 mg/kg
  % inhibitory activity on serotonin edema: 37%
Blood sugar level; [3]
  Percentage Decrease in the Blood Sugar: 13%
Blood sugar level; [4]
  Percentage Decrease in the Blood Sugar: 22%
Blood sugar level; [5]
  Percentage Decrease in the Blood Sugar: 12%
Blood sugar level; [6]
  Percentage Decrease in the Blood Sugar: 22%
Blood sugar level; [7]
  Percentage Decrease in the Blood Sugar: 32%
Blood sugar level; [8]
  Percentage Decrease in the Blood Sugar: 27%
Blood sugar level; [9]
  Percentage Decrease in the Blood Sugar: 24%
Blood sugar level; [10]
  Percentage Decrease in the Blood Sugar: 35%
Blood sugar level; [11]
  Percentage Decrease in the Blood Sugar: 31%
Phenylbenzoquinone (PBQ); 100 mg/kg
  % analgesic activity: 19%
Phenylbenzoquinone (PBQ); 200 mg/kg
  % analgesic activity: 49%
Phenylbenzoquinone (PBQ); 250 mg/kg
  % analgesic activity: 51%
Phenylbenzoquinone (PBQ); 300 mg/kg
  % analgesic activity: 40%
Wistar rat; 3000 mg/kg
  mortality (in words): no mortality
[2]; 100 mg/kg administered twice
  Exudate, % activity: 31%
  Exudate, % animals 30% protected: 62%
[2]; 150 mg/kg administered twice
  Exudate, % animals 30% protected: 25% and 14%
  Weight of dry granuloma, % animals 30% protected: 25% and 14%
  Weight of wet granuloma, % animals 30% protected: 25% and 14%
[2]; 200 mg/kg administered twice
  Exudate, % activity: 39%
  Exudate, % animals 30% protected: 75%
  Weight of dry granuloma, % activity: 41% and 22%
  Weight of dry granuloma, % animals 30% protected: 75% and 50%
  Weight of wet granuloma, % activity: 39% and 24%
  Weight of wet granuloma, % animals 30% protected: 75% and 50%
[2]; 300 mg/kg administered twice
  Exudate, % activity: 18%
  Exudate, % animals 30% protected: 2%
  Weight of dry granuloma, % activity: 9%
  Weight of dry granuloma, % animals 30% protected: 25%
  Weight of wet granuloma, % activity: 18%
  Weight of wet granuloma, % animals 30% protected: 25%
[2]
  ED50: 175 mg/kg
stomachs; Day 1
  Ulceration Index, acute: 6
  Ulceration Index, healing: 0
stomachs; Day 2
  Ulceration Index, acute: 2
  Ulceration Index, healing: 6
stomachs; Day 3
  Ulceration Index, acute: 48
  Ulceration Index, healing: 28

## C(=Nc1ccc2c(c1)OCO2)c1cccnc1 [Example 3, N-(3-pyridylidene)-5-aminobenzodioxole-1,3]
Cotton pellet granulomas; dose 150
  % inhibition with respect to dry pellets: 5%
  % inhibition with respect to wet pellets: 0%
[1]; 100 mg/kg
  % inhibitory activity on serotonin edema: 27%
[1]; 200 mg/kg
  % inhibitory activity on serotonin edema: 21%
[1]; 400 mg/kg
  % inhibitory activity on serotonin edema: 26%
Blood sugar level; [3]
  Percentage Decrease in the Blood Sugar: 16%
Blood sugar level; [4]
  Percentage Decrease in the Blood Sugar: NS
Blood sugar level; [5]
  Percentage Decrease in the Blood Sugar: 23%
Blood sugar level; [6]
  Percentage Decrease in the Blood Sugar: NS
Blood sugar level; [7]
  Percentage Decrease in the Blood Sugar: 27%
Blood sugar level; [8]
  Percentage Decrease in the Blood Sugar: 29%
Blood sugar level; [9]
  Percentage Decrease in the Blood Sugar: NS
Blood sugar level; [10]
  Percentage Decrease in the Blood Sugar: 19%
Blood sugar level; [11]
  Percentage Decrease in the Blood Sugar: 28%
Phenylbenzoquinone (PBQ); 50 mg/kg
  % analgesic activity: 23%
Phenylbenzoquinone (PBQ); 100 mg/kg
  % analgesic activity: 44%
Phenylbenzoquinone (PBQ); 200 mg/kg
  % analgesic activity: 65%
Phenylbenzoquinone (PBQ); 300 mg/kg
  % analgesic activity: 92%
Phenylbenzoquinone (PBQ); method of Lichfield and Wilcoxon
  ED50: 110 mg/kg
Wistar rat; 2000 mg/kg
  mortality (in words): no mortality
[2]; 100 mg/kg administered twice
  Exudate, % activity: 15% and 25%
  Exudate, % animals 30% protected: 25% and 37%
  Weight of dry granuloma, % activity: 12% and 22%
  Weight of wet granuloma, % activity: 15% and 25%
  Weight of wet granuloma, % animals 30% protected: 25% and 37%
[2]; 200 mg/kg administered twice
  Exudate, % activity: 27% and 34% and 38%
  Weight of dry granuloma, % activity: 27% and 32% and 33%
  Weight of wet granuloma, % activity: 27% and 33% and 34%
[2]; 250 mg/kg administered twice
  Exudate, % activity: 36%
  Exudate, % animals 30% protected: 75%
  Weight of dry granuloma, % activity: 33%
  Weight of dry granuloma, % animals 30% protected: 62%
  Weight of wet granuloma, % activity: 36%
  Weight of wet granuloma, % animals 30% protected: 75%
[2]; 300 mg/kg administered twice
  Exudate, % activity: 35% and 43%
  Exudate, % animals 30% protected: 87% and 75%
  Weight of dry granuloma, % activity: 37% and 41%
  Weight of dry granuloma, % animals 30% protected: 62% and 75%
  Weight of wet granuloma, % activity: 35% and 43%
  Weight of wet granuloma, % animals 30% protected: 87% and 75%
[2]
  ED50: 175 mg/kg
stomachs; Day 1
  Ulceration Index, acute: 6
  Ulceration Index, healing: 0
stomachs; Day 2
  Ulceration Index, acute: 20
  Ulceration Index, healing: 6
stomachs; Day 3
  Ulceration Index, acute: 33
  Ulceration Index, healing: 12
